# Laboratory results: patent US4822778A, “Membrane stabilizing phenoxy-piperidine compounds and pharmaceutical compositions employing such compounds” (Aberg; Gunnar, priority 1988, dated 1989)
# Key:
# [1] = Convulsive and lethal doses in rats, intravenous infusion; type: in vivo; conditions: rat, in vivo, iv; male rats, i.v. at 1.0 mg/kg/min; read-out: Convulsive dose
# Procedure: (§1) Convulsive doses and lethal doses after intravenous administration for selected compounds of the invention and for Bupivacaine are shown in Table 3 below.
# (§2) Convulsive and lethal doses of selected compounds
# (§3) administered intravenously at 1.0 mg/kg/min to rats (male;
# [2] = tested on: rats; assay: as above; type: in vivo; conditions: male rats, i.v. at 1.0 mg/kg/min
# Procedure: as §1, §2, §3
# [3] = in vivo; conditions: mouse, sc
# [4] = tested on: guinea pigs; assay: Infiltration anesthetic effects, intracutaneous injection in guinea pigs; type: in vivo; conditions: 0.2 ml of 0.5% by weight solution
# Procedure: 1. […] A. Infiltration anesthetic effects: The effects of the new compounds were tested according to Aberg & […], Acta Anaesth.
# [5] = tested on: sciatic nerve; assay: Nerve blocking effects in rats in vivo; conditions: 0.25 ml of 0.5% by weight solution
# Procedure: B. Nerve blocking effects. The tests were carried out in vivo in rats after injection of 0.25 ml of the test solutions close to the sciatic nerve.
# [6] = tested on: rabbit cornea; assay: Topical anesthetic effects, corneal test in rabbits in vivo; conditions: 0.25 ml
# Procedure: C. Topical anesthetic effects. Corneal tests were carried out in rabbits in vivo according to Henn.
# [7] = tested on: ventricular arrhythmias; assay: Antiarrhythmic effects, ouabain-induced ventricular arrhythmias in anesthetized dogs; type: in vivo; conditions: i.v.
# Procedure: 2. Antiarrhythmic effects.
# Ventricular arrhythmias were induced in anesthetized dogs by intravenous injection of ouabain: initially 40 μg/kg bodyweight and thereafter 20 μg/kg bodyweight every 20 minutes until the ventricular arrhythmia was regarded as manifest. Lidocaine was also tested by the same procedure. The new compounds were compared with lidocaine, a known antiarrhythmic compound.
# [8] = tested on: lingomandibular reflex; assay: Interneuronblocking effects, lingomandibular reflex in anesthetized cats; type: in vivo, cats (female; 2.5-3.5 kg)
# Procedure: 3. Interneuronblocking effects.
# Tests were carried out in anesthetized cats (female; 2.5-3.5 kg bodyweight). The effects of the compounds were studied on the lingomandibular reflex, which was provoked by means of electrical stimulation of the tongue. The mandibular reflux was registered from a transducer connected to the mandible. Phenyramidole was tested by the same procedure. As evident from the results shown in Table 8, the compound according to Example 2 of the invention is 10 times as potent as phenyramidole.
# [9] = tested on: cynomolgus monkeys; assay: Spinal anesthetic effects in monkeys, intrathecal injection; type: in vivo; conditions: intrathecal 1.0 ml
# Procedure: D. Spinal Anesthetic Effects.
# Spinal anesthetsias were performed on cynomolgus monkeys that had been sedated with ketamine (6 mg/kg; i.m.). 1.0 ml of the test solutions were injected intrathecally and the durations were tested every ten (10) minutes with forceps. The duration of motoric blockade was calculated as the time until the hind leg paralysis ceased.
SMILES,TD50 [1] [mg/kg],Lethal dose [2] [mg/kg],LD50 [3] [mg/kg],Infiltration anesthesia duration [4] [min],"Nerve blocking effect, Motoric blockade [5] [min]","Nerve blocking effect, Sensoric blockade [5] [min]","Topical anesthetic effect, Duration ([6]; concentration 1.0%) [min]","Topical anesthetic effect, Onset frequency ([6]; concentration 1.0%)",Duration of regularization ([7]; 1 mg/kg) [min],further results
"CCCCN1CCCCC1C(=O)Nc1c(C)cccc1C (centres unmarked) [Bupivacaine, reference compound]",9,13,50,,,,,,,
"Cc1cccc(C)c1OCC1CCCCN1 (centres unmarked) [Example 1, 2-[(2,6-xyloxy)methyl]piperidine]",22,50,110,40,75,90,24 ± 4,9/10,5,Duration of regularization ([7]; 2 mg/kg): 10 min
"Cc1cccc(C)c1OCC1CCCCN1C.Cl (centres unmarked) [Example 2, N-methyl-2-[(2,6-xyloxy)methyl]-piperidine hydrochloride]",10,33,260,120,110,135,14 ± 4,7/10,2,"Duration of regularization ([7]; 2 mg/kg): 4 min; inhibition at 0.25 mg/kg ([8]; Felis catus, iv, 0.25 mg/kg bodyweight, read-out: Maximal inhibition): 30%; inhibition at 0.5 mg/kg ([8]; Felis catus, iv, 0.50 mg/kg bodyweight, read-out: Maximal inhibition): 80%; inhibition at 1 mg/kg ([8]; Felis catus, iv, 1.00 mg/kg bodyweight, read-out: Maximal inhibition): 100%; Duration of inhibition ([8]; i.v., 0.25 mg/kg bodyweight): 10 min; Duration of inhibition ([8]; i.v., 0.50 mg/kg bodyweight): 20 min; Duration of inhibition ([8]; i.v., 1.00 mg/kg bodyweight): 45 min; Potency relative to phenyramidole ([8]; i.v., compared with phenyramidole): 10 times"
"CC1CCCC(C)C1OCC1CCCCN1 (centres unmarked) [Example 3, 2-[(2,6-dimethylcyclohexyloxy)methyl]piperidine]",,,180,35,0,0,,,,
CC1CCCC(C)C1OCC1CCCCN1C (centres unmarked) [Example 4],,,350,60,65,80,,,,
"CCN1CCCCC1COc1c(C)cccc1C (centres unmarked) [Example 5, N-ethyl-2-[(2,6-xyloxy)-methyl]piperidine]",15,41,200,70,90,115,18 ± 3,9/10,3,"Duration, Anal Blockade ([9]; 3.0% by wt.): 258 min; Duration, Digital Blockade ([9]; 3.0% by wt.): 163 min; Duration, Motor Blockade ([9]; 3.0% by wt.): 178 min"
"CCCN1CCCCC1COc1c(C)cccc1C (centres unmarked) [Example 6, N-(n-propyl)-2-[(2,6-xyloxy)methyl]piperidine]",11,20,200,175,145,155,24 ± 2,9/9,4,"Duration, Anal Blockade ([9]; 3.0% by wt.): > 291 min; Duration, Digital Blockade ([9]; 3.0% by wt.): 222 min; Duration, Motor Blockade ([9]; 3.0% by wt.): > 198 min"
"CCCCN1CCCCC1COc1c(C)cccc1C (centres unmarked) [Example 7, N-(n-butyl)-2-[(2,6-xyloxy)methyl]piperidine]",16,24,225,165,140,160,27 ± 4,10/10,4,
Cc1ccc(OCC2CCCCN2C)c(C)c1 (centres unmarked) [Example 8],,,400,35,55,75,,,,
Cc1ccc(C)c(OCC2CCCCN2C)c1 (centres unmarked) [Example 9],,,400,25,75,95,,,,
CN1CCCCC1COc1ccccc1 (centres unmarked) [Example 10],,,150,35,25,40,,,,
Cc1ccccc1OCC1CCCCN1C (centres unmarked) [Example 11],,,300,55,60,85,,,,
Cc1cccc(C)c1OCC1CCCCN1CCO (centres unmarked) [Example 12],,,220,40,95,95,,,,
"CCN(CC)CC(=O)Nc1c(C)cccc1C [Lidocaine, reference compound]",,,,25,40,35,,,2,"Topical anesthetic effect, Duration ([6]; concentration 4.0%): 23 ± 3 min; Topical anesthetic effect, Onset frequency ([6]; concentration 4.0%): 10/10; Duration, Anal Blockade ([9]; 5.0% by wt.): 150 min; Duration, Digital Blockade ([9]; 5.0% by wt.): 88 min; Duration, Motor Blockade ([9]; 5.0% by wt.): 73 min; Duration of regularization ([7]; 2 mg/kg): 4 min"
"OC(CNc1ccccn1)c1ccccc1 (centres unmarked) [Phenyramidole, reference compound]",,,,,,,,,,"inhibition at 2.5 mg/kg ([8]; Felis catus, iv, 2.5 mg/kg bodyweight, read-out: Maximal inhibition): 40%; inhibition at 5 mg/kg ([8]; Felis catus, iv, 5.0 mg/kg bodyweight, read-out: Maximal inhibition): 80%; inhibition at 10 mg/kg ([8]; Felis catus, iv, 10.0 mg/kg bodyweight, read-out: Maximal inhibition): 100%; Duration of inhibition ([8]; i.v., 2.5 mg/kg bodyweight): 5 min; Duration of inhibition ([8]; i.v., 5.0 mg/kg bodyweight): 20 min; Duration of inhibition ([8]; i.v., 10.0 mg/kg bodyweight): 60 min"
